Assay results taken from patent US4342827A, “Production of enzymes” (Public Health Laboratory Service, Center for Applied …, priority 1978, dated 1982).

Molecular target: T1, glycerol dehydrogenase (GDH) (Geobacillus stearothermophilus, UniProt P32816)
T1 construct: crude, partially or highly purified (DEAE-cellulose, triazine dye-agarose, gel filtration)
Assay: GDH assay against analogous substrates, activities (Vmax) relative to glycerol
Format: biochemical, Bacillus stearothermophilus
Details: 30° C., pH 8.5; substrate instead of glycerol
Procedure: The thermostable GDH enzymes produced from the strains of Bacillus stearothermophilus described above typically have a structure composed of four identical or similar sub-units each of molecular weight about 60,000 giving an overall molecular weight of about 240,000±30,000 daltons. When homogeneous and tested by the assay method described below they have a specific activity of at least 5 and normally about 10 to 30 units per mg protein at 30° C. and pH 8.5. When tested under similar conditions against analogous substrates the activities (Vmax) relative to glycerol (100%) were:
Assays for GDH activity were carried out by the following procedure and all references to activities in the present description and claims refer to activity as measured by this assay.
(i) 0.25 M Triethanolamine-HCl (pH 8.5).
(iii) 10 mg/ml NAD (nicotinamide adenine dinucleotide)
600 μl, H2 O, 200 μl triethanolamine-HCl solution, 25 μl NAD solution and 5 to 200 μl of the sample to be assayed were mixed in a cuvette (pathlength 1 cm.). After pre-equilibration to attain 30° C., 100 μl of glycerol solution was added to initiate the reaction.
The reduction of NAD was followed by spectrophotometric means, by observing the absorbance of the solution at 340 nm. Either a water or reagent blank was used, and units were expressed as μmoles of NADH formed per minute at 30° C. with dilution to give ΔOD340 in the range 0.06 to 0.12 per minute.

T1 sequence (P32816 whole entry): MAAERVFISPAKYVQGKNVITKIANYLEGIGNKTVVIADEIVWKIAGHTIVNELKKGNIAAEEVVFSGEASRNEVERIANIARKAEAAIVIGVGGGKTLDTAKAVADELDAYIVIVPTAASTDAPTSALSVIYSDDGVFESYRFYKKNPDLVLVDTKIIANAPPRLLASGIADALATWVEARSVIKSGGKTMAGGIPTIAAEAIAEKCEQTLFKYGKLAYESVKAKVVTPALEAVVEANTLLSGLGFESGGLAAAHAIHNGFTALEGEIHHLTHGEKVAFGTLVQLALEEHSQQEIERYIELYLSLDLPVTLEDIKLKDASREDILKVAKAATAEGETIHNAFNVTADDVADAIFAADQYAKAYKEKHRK

Compound | activity (Vmax) relative to glycerol (100%)
OCCC(O)S (stereo not drawn) [3-mercapto-propane1, 3 diol] | 49%
O=C(CO)CO [dihydroxyacetone] | < 10%
CC(O)CO (stereo not drawn) [propane1, 2 diol] | 165%

Next, values leading:

activity (Vmax) relative to glycerol (100%) | Compound
< 10% | O=C(O)C(O)CO (stereo not drawn) [glyceric acid]
16% | OCCCO [propane1, 3diol]

Same assay, conditions: high concentrations

Compound | effect on GDH activity
N [NH4^+ ions] | inhibited
